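The compound was tested at five concentrations on cells cultured in 96-well plates, with a 48-hour exposure period. Abbreviation: GI50, concentration required for 50% inhibition of growth.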 Calls of active or inactive are those of the source. Rule as the data show it: active = GI50 up to about 1.1 µM and inactive = higher.
Experiments:
Assay in all cases: inhibition of tumour cell growth, NCI panel, 48 h
[1] = tested on: A498
[2] = tested on: CCRF-CEM
[3] = tested on: HCC 2998
[4] = tested on: HOP-92
[5] = tested on: HT-29
[6] = tested on: Hs-578T
[7] = tested on: K562
[8] = tested on: M14
[9] = tested on: MDA-N
[10] = tested on: Malme-3M
[11] = tested on: NCI-H226
[12] = tested on: NCI-H522
[13] = tested on: NCI/ADR-RES
[14] = tested on: OVCAR-3
[15] = tested on: OVCAR-8
[16] = tested on: SN12C
[17] = tested on: TK-10
[18] = tested on: U-251
[19] = tested on: UACC-257
[20] = tested on: UO-31

Measured: GI50

O=c1ccc2nc3ccc(O)cc3oc-2c1
inactive: [1] 35.2 µM | [2] 34 µM | [3] 25.6 µM | [4] > 100 µM | [5] 24 µM | [6] 6.92 µM | [7] 6.1 µM | [8] 4.3 µM | [9] 1.91 µM | [10] 2.72 µM | [11] 27.8 µM | [12] 5.32 µM | [13] 19.5 µM | [14] 10.5 µM | [15] 16.4 µM | [16] > 100 µM | [17] > 72.1 µM | [18] 26.8 µM | [19] 8.69 µM | [20] 5.75 µM

C=C1C(=O)OC2/C=C(\C)CC/C=C(\C)CC(OC(=O)/C(=C/CO)CO)[C@@H]12 (stereo partly drawn)
inactive: [1] 19 µM | [2] 2.09 µM | [3] 18.7 µM | [4] 4.93 µM | [5] 7.41 µM | [6] 27.2 µM | [7] 2.65 µM | [8] 3.9 µM | [9] 5.45 µM | [10] 2.38 µM | [11] 32.8 µM | [12] 1.75 µM | [13] 20 µM | [14] 5.7 µM | [15] 1.98 µM | [16] 13.6 µM | [17] 5.51 µM | [18] 1.4 µM | [19] 7.85 µM | [20] 11.6 µM

CCOC(=O)C(Cl)(NC(=O)c1ccc(F)cc1)C(F)(F)F (stereo not drawn)
inactive: [1] > 100 µM | [2] > 100 µM | [3] > 100 µM | [4] > 100 µM | [5] > 100 µM | [6] > 100 µM | [7] > 100 µM | [8] > 100 µM | [9] > 100 µM | [10] > 100 µM | [11] > 100 µM | [12] > 100 µM | [13] > 100 µM | [14] > 100 µM | [15] > 100 µM | [16] > 100 µM | [17] > 100 µM | [18] > 100 µM | [19] > 100 µM | [20] > 100 µM

C/C=C1/CN2CCc3c([nH]c4ccccc34)[C@@H]2C[C@@H]1Cc1nccc2c1[nH]c1cc(O)ccc12
inactive: [1] 1.93 µM | [2] 2.9 µM | [3] 1.42 µM | [4] 6.38 µM | [5] 1.87 µM | [6] 2.23 µM | [7] 2.13 µM | [8] 2.16 µM | [9] 2.01 µM | [11] 3.85 µM | [12] 1.89 µM | [13] 1.72 µM | [14] 2.39 µM | [15] 1.9 µM | [16] 1.66 µM | [17] 1.95 µM | [18] 2.19 µM | [19] 2.41 µM | [20] 1.99 µM

CCCn1cnc2c(/N=N/O)ncnc21
inactive: [1] > 100 µM | [3] > 100 µM | [4] > 100 µM | [5] > 100 µM | [6] > 100 µM | [7] > 100 µM | [8] > 100 µM | [9] > 100 µM | [10] > 100 µM | [11] > 100 µM | [12] > 100 µM | [13] > 100 µM | [14] > 100 µM | [15] > 100 µM | [17] > 100 µM | [18] > 100 µM | [20] > 100 µM

Fc1cc2nc3n(c2cc1F)C(c1c(F)cccc1F)SC3 (stereo not drawn)
inactive: [1] 29.8 µM | [3] 68.4 µM | [4] 38.8 µM | [5] 34.8 µM | [6] 50.1 µM | [8] 30.5 µM | [9] 35.6 µM | [10] 50.8 µM | [11] 52 µM | [12] 24.9 µM | [13] 35.4 µM | [14] 34.4 µM | [15] 42 µM | [16] 51.9 µM | [17] 45.4 µM | [18] 57.3 µM | [19] 46.6 µM | [20] 37.8 µM

Nc1nc(N)nc(-c2cnc3ccccc3c2)n1
inactive: [1] > 100 µM | [2] 13.4 µM | [3] > 100 µM | [4] 73.5 µM | [6] > 100 µM | [7] > 100 µM | [8] > 100 µM | [9] > 100 µM | [10] > 100 µM | [11] > 100 µM | [12] > 100 µM | [13] > 100 µM | [14] > 100 µM | [15] > 100 µM | [16] > 100 µM | [17] 88.9 µM | [18] > 100 µM | [19] > 100 µM | [20] > 100 µM

— ChEMBL document CHEMBL1201862, “PubChem BioAssay data set” (2004)
